Legend:
Type in all cases: functional, organism-based
[1] = organism: Oryctolagus cuniculus; experiment: (§1) HDL-cholesterol-fed rabbit
[2] = organism: Oryctolagus cuniculus; experiment: as §1; remark: listed apart in the source
[3] = organism: Oryctolagus cuniculus; experiment: (§2) Total cholesterol-fed rabbit
[4] = organism: Oryctolagus cuniculus; experiment: as §2; remark: listed apart in the source
[5] = organism: Oryctolagus cuniculus; experiment: Triglyceride after 0 week of cholesterol-fed rabbit
[6] = organism: Oryctolagus cuniculus; experiment: Triglyceride after 8 weeks of cholesterol-fed rabbit

| SMILES | Plasma lipids [1] [mg/dL] | Plasma lipids [2] [mg/dL] | Plasma lipids [3] [mg/dL] | Plasma lipids [4] [mg/dL] | Plasma lipids [5] [mg/dL] | Plasma lipids [6] [mg/dL] |
| --- | --- | --- | --- | --- | --- | --- |
| COC(=O)C(C)NC(=O)CCc1ccc(O)c(O)c1 (configuration not stated) | 37 | 81 | 53 | 1080 | 53 | 116 |
| COC(=O)C(Cc1c[nH]c2ccccc12)NC(=O)CCc1ccc(O)c(O)c1 (configuration not stated) | 32 | 98 | 50 | 1070 | 43 | 104 |

— ChEMBL document CHEMBL1136154, “Anti-atherogenic effects of 3,4-Dihydroxy hydrocinnamides” (Bioorg Med Chem Lett, 2003)
